Laboratory results: patent publication US6362352B1, “F18-labeled thia fatty acids and methods of making and using the same” (Duke University, priority 1999, dated 2002)

Columns and labels:
myocardium = details: cited from earlier work
[1] = PET imaging studies in patients with ischemic cardiomyopathy; type: in vivo; details: same subjects
Method: PET imaging studies were performed with 16F4THA in patients with ischemic cardiomyopathy. Conventional nuclear medicine perfusion scans were obtained in the same subjects.

isolated rat hearts = test: Tracer uptake versus palmitate beta-oxidation rate in isolated perfused rat hearts; design: species or system Sprague Dawley rats; details: Langendorff perfusion, 0.15 mM palmitate, 5 mM glucose; both normoxic (95% oxygen) and hypoxic (35% oxygen) conditions
Method: Model 4-thia analogs (16-[^18F]fluoro-4-thia-hexadecanoic acid and 12-[^18F]fluoro-4-thia-dodecanoic acid) were examined as tracers in isolated rat hearts. The perfusate was Krebs-Hensleit buffer with 1% albumin, 0.15 mM palmitate, and 5 mM glucose. Sprague Dawley rats (200-225 g) were fed ad libetum. The hearts were excised from pentobarbital-anesthetized animals and perused at 7 ml/min in Langendorff retrograde fashion. The perfusate was gassed with either 95% oxygen (normoxic) or 35% oxygen (hypoxic) gas mixture. The gases comprising the remaining fraction were nitrogen and carbon dioxide (5% for both). The tracer was administered as a bolus or as a pulse infusion into the isolated rat hearts. Pulse infusion allowed absolute quantification of ^18F accumulation rates that reflect the metabolic rate of the tracer in the heart. Clearance rates are measured during the washout phase of these experiments. Beta-oxidation rates of 9,10[^3H] palmitate were measured by collection of venous effluent samples and separation of titrated water.

Structure (SMILES): CCCC([18F])CCCCCCCSCCCCC(=O)O (stereo not shown) [Compound 14F6THA]
- tracking of beta-oxidation of palmitate (myocardium; a number of conditions): tracks beta-oxidation of palmitate
- sensitivity to inhibition of beta-oxidation in myocardium (myocardium; hypoxia with normal blood flow): insensitive

Structure (SMILES): O=C(O)CCSCCCCCCCCCCCC[18F] [Compound 16F4THA, 16-[^18F]Fluoro-4-thia-hexadecanoic acid]
- quality of PET scans compared with conventional nuclear medicine perfusion scans [1]: superior quality

Structure (SMILES): O=C(O)CCCCSCCCCCCCCCCC[18F] [Compound 17F6THA, 17-[^18F]Fluoro-6-thia-heptadecanoic acid]
- correlation of beta-oxidation rates with uptake rates of the tracer (r) (isolated rat hearts): poor correlation
